Experiment [1] has as its system βII-spectrin. As to the kind of experiment: Effects of calpain and caspase-3 inhibitors on βII-SBDP pattern in challenged cerebrocortical cultures (Western blot). Type of experiment: cell-based, rat. The settings on record: for βII-SBDP bands after MTX challenge with inhibitor: 0.5 nM MTX 3 hrs + 20 μM IDN-6556 or 30 μM SNJ-1945; for βII-SBDP bands after NMDA challenge with inhibitor: 300 μM NMDA + 20 μM IDN-6556 or 30 μM SNJ-1945; for βII-SBDP bands after EDTA challenge with inhibitor: EDTA + 20 μM IDN-6556 or 30 μM SNJ-1945, pretreated 1 hr. As to the method:
(§1) All cultures are prepared in quadruplicate. Cerebrocortical cells harvested from 1-day old Sprague-Dawley rat brains are plated on poly-L-lysine coated 6-well culture plates (Erie Scientific, Portsmouth, N.H., USA) according to a previously cited method (Nath et al., 2000) at a density of 4.36×10^5 cells/mL. Cultures are maintained in Dulbecco's modified Eagle's medium (DMEM) with 10% fetal bovine serum in a humidified incubator in an atmosphere of 10% CO2 at 37° C. After 5 days in culture, the media is changed to DMEM with 5% horse serum. Subsequent media changes are performed three times a week. Experiments are performed on days 10 to 11 in vitro when astroglia have formed a confluent monolayer beneath morphologically mature neurons. All animal studies conform to the guidelines outlined in the Guide for the Care and Use of Laboratory Animals from the National Institutes of Health and were approved by the local IACUC.
(§2) Cells are collected and lysed with the same lysis buffer as described above.
(§3) The neuronal lysates are then centrifuged at 15000 g for 5 min at 4° C. to clear and remove insoluble debris, snap-frozen, and stored at −85° C. until use.
(§4) Protein concentrations of culture lysates are determined by bicinchoninic acid microprotein assays (Pierce Inc, Rockford, Ill., USA) with albumin standards. Protein balanced samples are prepared for sodium dodecyl sulfate-polyacrylamide gel electrophoresis (SDS-PAGE) in […] loading buffer containing 0.25 M Tris (pH 6.8), 0.2 M DTT, 8% SDS, 0.02% bromophenol blue, and 20% glycerol in distilled H2O. Twenty micrograms (20 μg) of protein per lane are routinely resolved by SDS-PAGE on 6% Tris/glycine gels (for spectrin protein) and/or 10-20% Tris/glycine gels for 2 hr at 120 V. Following electrophoresis, separated proteins are laterally transferred to polyvinylidene fluoride (PVDF) membranes in a transfer buffer containing 0.50 M glycine, 0.025 M Tris-HC1 (pH 8.3) and 10% methanol at a constant voltage of 20 V for 2 hr at 4° C. in a semi-dry transfer unit (Bio-Rad, Hercules, Calif.).
(§5) Tissue samples (20 μg) are subjected to electrophoresis, equal volumes of samples for SDS/PAGE are prepared in a 2×-fold loading buffer [0.25 M Tris (pH 6.8), 0.2 M DTT, 8% SDS, 0.02% bromophenol blue and 20% glycerol in distilled H2O]. Gels are run at 120 V for 2 hr in a mini-gel unit (Invitrogen Life). Protein bands are transferred to PVDF membrane on a semi-dry Trans-blot unit (Bio-Rad, Hercules, Calif.) at 20 V for 2 hrs. After electrotransfer, blotting membranes are blocked for 1 hr at ambient temperature in 5% non-fat milk in TBST [20 mM Tris/HCl (pH 7.4), 150 mM NaCl and 0.05% (w/v) Tween-20], then incubated with the primary monoclonal antibody in TBST/5% milk. Primary antibodies to be used include mouse anti all-spectrin (Affinity Res. Prod. Nottingham, UK), mouse monoclonal anti βII-spectrin (BD Transduction Laboratories, USA; cat # 612563) and rabbit anti βIII-spectrin (BETHYL Laboratories, Inc. TX, cat # A310-367A). The blots are then washed 3 times for 15 min with TBST and exposed to biotinylated secondary antibodies (Amersham Biosciences, U.K.) followed by a 30 min incubation with streptavidin-conjugated alkaline phosphatase. Colorimetric development is performed with a one-step 5-bromo-4-chloro-3-indolyl phosphate-reagent (Sigma-Aldrich, St. Louis, Mo.). The molecular weights of intact proteins and their potential BDPs are assessed by running along-side rainbow colored molecular weight standards (Amersham Biosciences, U.K.)
(§6) Rat cerebrocortical cell cultures are prepared as described above and treated with calpain inhibitor SNJ-1945 and caspase-3 inhibitor IDN-6556 along with different neurotoxic paradigms (FIG. 3).
On the technique in general: In western blotting, separated proteins are transferred to a membrane and probed.

For a further experiment, the system named is αII-spectrin. As to the kind of experiment: αII-spectrin breakdown pattern in challenged cerebrocortical cultures with or without inhibitors (Western blot). It is filed as cell-based, rat. The settings on record: for αII-spectrin fragments (SBDP-150/SBDP-145, SBDP-120) after NMDA challenge with respective protease inhibitor: 300 μM NMDA + 30 μM SNJ-1945 or 20 μM IDN-6556; for αII-spectrin breakdown products after neurotoxin challenge alone: EDTA, MTX or NMDA alone. As to the method: as §1, §2, §3, §4, §5, §6

Experiment [2] relates to βII-spectrin. The experiment can be described thus: βII-spectrin proteolytic fragmentation after brain cortex lysate digestion with calpain-2 and caspase-3. Type of experiment: biochemical, rat. As to the method: as §5, with “Colorimetric development is performed with a one-step 5-bromo-4-chloro-3-indolyl phosphate-reagent (Sigma-Aldrich, St. Louis, Mo.).” left out
Experiment [3] relates to rat cerebrocortical cultures. The experiment can be described thus: Neurotoxin challenges of primary cerebrocortical cultures: morphology and βII-spectrin breakdown by Western blot. Type of experiment: cell-based. The settings on record: for degeneration in soma and neurites of neuronal cultures under microscope: MTX at 3 hours, STS, EDTA, NMDA at 24 hours, vs untreated control; for βII-SBDP bands after neurotoxin challenge alone (Western blot): NMDA 300 μM, STS 0.5 μM, EDTA 2 mM, MTX 0.5 nM 3 hrs, no inhibitor. As to the method: as §1, §2, §3, §4, §5
Alternatively, neuronal cultures are treated with staurosporine (STS) for 24 hours or with NMDA. (FIG. 2)

“Also recorded” adds a separate entry of the source.

Consider `C[C@H](NC(=O)C(=O)Nc1ccccc1C(C)(C)C)C(=O)N[C@@H](CC(=O)O)C(=O)COc1c(F)c(F)cc(F)c1F` [IDN-6556], for which, in the experiment with βII-spectrin [1], the “βII-SBDP bands after MTX challenge with inhibitor” value was “βII-SBDPs of 110 kDa and 85 kDa are observed”; the “βII-SBDP bands after NMDA challenge with inhibitor” value was “much weaker”; the “βII-SBDP bands after EDTA challenge with inhibitor” value is reported as “no βII-SBDPs”. The “αII-spectrin fragments (SBDP-150/SBDP-145, SBDP-120) after NMDA challenge with respective protease inhibitor” value in the experiment with αII-spectrin is “strongly inhibited”. Moreover, the “αII-spectrin caspase-mediated SBDP-120 after EDTA challenge with inhibitor” value in the experiment with αII-spectrin (EDTA + IDN-6556) is recorded as “absence”.
For `C=CC[C@H](C)[C@H](C)C[C@@H](O)[C@H](O)[C@@H]1CC[C@@]2(C)O[C@@]3(C)C[C@@]4(C)O[C@H]5/C=C\C[C@H]6O[C@H]7C[C@H]8O[C@H]9C[C@@]%10(C)O[C@@](C)([C@@H]%11CC[C@H]%12O[C@@]%13(C)C[C@H]%14O[C@@]%15(C)C[C@H]%16O[C@@]%17(C)C[C@@H](O)[C@H]([C@@H]%18O[C@H]%19[C@H](O)[C@@H](O)[C@H](C[C@H](O)C[C@@H](O)[C@@H]%20O[C@H]%21[C@H](O)[C@@H](O)[C@H]([C@@H]%22O[C@@H]%23[C@H](O)[C@H]%24O[C@H]%25C[C@H]%26O[C@@H](C[C@H](O)[C@@H](O)[C@H]%27O[C@H]%28[C@H](O)[C@H]%29O[C@H]%30C[C@H]%31O[C@H]%32[C@@H](O)[C@@H](O)[C@H]([C@H](C)[C@H](O)[C@H](C)CC[C@H](OS(=O)(=O)O)[C@H](O)[C@H](C)C[C@@H](O)C(=C)/C(C)=C/CO)O[C@@H]%32[C@H](O)C[C@]%31(C)O[C@@H]%30C[C@]%29(C)O[C@@H]%28C[C@H]%27O)[C@H](OS(=O)(=O)O)[C@H](O)[C@@H]%26O[C@@H]%25C[C@@H]%24O[C@H]%23[C@H](O)[C@H]%22O)O[C@H]%21C[C@H]%20O)O[C@H]%19C[C@H]%18O)O[C@@H]%17[C@H](O)[C@]%16(C)O[C@@H]%15CC[C@]%14(C)O[C@@H]%13C[C@@H]%12O%11)[C@H](O)C[C@@H]%10O[C@]9(C)CC[C@]8(C)O[C@]7(C)C[C@@H]6O[C@@H]5C[C@@H]4O[C@@H]3C[C@@H]2O1` [MTX, maitotoxin], the “βII-SBDPs generated by EDTA and MTX treatments used as controls for apoptotic and necrotic injury” value with βII-spectrin [2] (brain lysates treated with MTX and EDTA, comparators in FIG. 8) is 110/85. Moreover, in experiment [3], the “degeneration in soma and neurites of neuronal cultures under microscope” value (“degeneration in soma and neurites” below) is on record as “significant degeneration”; the “βII-SBDP bands after neurotoxin challenge alone (Western blot)” value (“βII-SBDP bands … (Western blot)” for short) is “strong βII-SBDPs of 110 kDa and 85 kDa bands; also recorded: βII-SBDPs of 110 kDa and 85 kDa are observed”. Also, the “αII-spectrin breakdown products after neurotoxin challenge alone” value in the experiment with αII-spectrin was “presence of the prominent calpain-mediated SBDP-145 kDa band”.
For the molecule `CN[C@H](CC(=O)O)C(=O)O` [NMDA, N-methyl-D-aspartate], in experiment [3], the “degeneration in soma and neurites” value was “significant degeneration”; the “βII-SBDP bands … (Western blot)” value was “dominant signal of calpain-mediated βII-spectrin breakdown product (βII-SBDP) of 110 kDa and 85 kDa, with minimal caspase mediated βII-SBDP of 108 kDa and 80 kDa; also recorded: presence of all the βII-SBDPs (110, 108, 85 and 80 kDa)”. Besides, the “αII-spectrin breakdown products after neurotoxin challenge alone” value with αII-spectrin is listed as “prominent calpain-mediated SBDP-150/SBDP-145, with minor bands of caspase-3-mediated SBDP-120”.
Consider `COCCOCCOC(=O)N[C@@H](CC(C)C)C(=O)N[C@@H](Cc1ccccc1)C(=O)C(=O)NC1CC1` [SNJ-1945], for which, in the experiment on βII-spectrin [1], the “βII-SBDP bands after MTX challenge with inhibitor” value is “no βII-SBDPs observed”, the “βII-SBDP bands after NMDA challenge with inhibitor” value is reported as “only βII-SBDP-108 kDa band” and the “βII-SBDP bands after EDTA challenge with inhibitor” value is recorded as “strong βII-SBDP 108 kDa/weak 80 kDa bands”. Further, the “αII-spectrin fragments (SBDP-150/SBDP-145, SBDP-120) after NMDA challenge with respective protease inhibitor” value with αII-spectrin is “strongly inhibited”. In addition, the “αII-spectrin calpain-mediated SBDP-145 after MTX challenge with inhibitor” value in the experiment on αII-spectrin (MTX + SNJ-1945) was “absence”.
For the molecule `CN[C@@H]1C[C@H]2O[C@@](C)([C@@H]1OC)n1c3ccccc3c3c4c(c5c6ccccc6n2c5c31)C(=O)NC4` [STS, staurosporine], in experiment [3], the “degeneration in soma and neurites” value is “significant degeneration”; the “βII-SBDP bands … (Western blot)” value is “two prominent βII-SBDP bands of 108 kDa and 80 kDa”.

B1: Calpain: purified protease human calpain-2 (BD Bioscience; Catalogue no. 208715) (protein, UniProt P17655 20-700, looked up)
Calpain-2 catalytic subunit: SHDRAIKYLNQDYEALRNECLEAGTLFQDPSFPAIPSALGFKELGPYSSKTRGIEWKRPTEICADPQFIIGGATRTDICQGALGDCWLLAAIASLTLNEEILARVVPLNQSFQENYAGIFHFQFWQYGEWVEVVVDDRLPTKDGELLFVHSAEGSEFWSALLEKAYAKINGCYEALSGGATTEGFEDFTGGIAEWYELKKPPPNLFKIIQKALQKGSLLGCSIDITSAADSEAITFQKLVKGHAYSVTGAEEVESNGSLQKLIRIRNPWGEVEWTGRWNDNCPSWNTIDPEERERLTRRHEDGEFWMSFSDFLRHYSRLEICNLTPDTLTSDTYKKWKLTKMDGNWRRGSTAGGCRNYPNTFWMNPQYLIKLEEEDEDEEDGESGCTFLVGLIQKHRRRQRKMGEDMHTIGFGIYEVPEELSGQTNIHLSKNFFLTNRARERSDTFINLREVLNRFKLPPGEYILVPSTFEPNKDGDFCIRVFSEKKADYQAVDDEIEANLEEFDISEDDIDDGFRRLFAQLAGEDAEISAFELQTILRRVLAKRQDIKSDGFSIETCKIMVDMLDSDGSGKLGLKEFYILWTKIQKYQKIYREIDVDRSGTMNSYEMRKALEEAGFKMPCQLHQVIVARFADDQLIIDFDNFVRCLVRLETLFKIFKQLDPENTGTIELDLISWLCFSVL
Regarding B1, the “βII-SBDPs generated by in vitro protease digestion of cortical tissue lysate” value in the experiment with βII-spectrin [2] (intact 260 kDa βII-spectrin, calpain-2 25° C. 30 min, caspase-3 37° C. 4 hrs) is “prominent 110 and 85 kDa βII-SBDPs in addition to a number of non-specific high molecular bands”.

Source of the values: patent US20170307640A1, “METHODS, KITS AND DEVICES FOR DETECTING BII-SPECTRIN, AND BREAKDOWN PRODUCTS THEREOF, AS BIOMARKERS FOR THE DIAGNOSIS OF NEURAL INJURY” (BANYAN BIOMARKERS, INC., priority 2012, published 2017).
